Results taken from article PMC11995724, “Antibiotic target discovery by integrated phenotypic and activity-based profiling of electrophilic fragments” (Cell chemical biology, 2025).

Experiment: in vitro
Conditions: human, hek293t cells

| Compound | viability at 48 h, 25 µM |
| --- | --- |
| Cc1cc(N(CCC#N)C(=O)CCl)ccc1Cl [4-K15, 2-chloro-N-(4-chloro-3-methylphenyl)-N-(2-cyanoethyl)acetamide] | 0.75% |
| CC1CC(C)CN(S(=O)(=O)c2ccc(NC(=O)CCl)cc2)C1 (stereo not drawn) [4-K16, 2-chloro-N-{4-[(3,5-dimethylpiperidin-1-yl)sulfonyl]phenyl}acetamide] | 0.265% |
| CCC(NC(=O)CCl)c1ccc(C)cc1 (stereo not drawn) [4-K17, 2-chloro-N-[1-(4-methylphenyl)propyl]acetamide] | 2.62% |
| O=C(CCl)NC(c1ccc(F)cc1)c1cccs1 (stereo not drawn) [4-K18, 2-chloro-N-[(4-fluorophenyl)(thiophen-2-yl)methyl]acetamide] | 0.21% |
| COc1ccc(C(NC(=O)CCl)C2CC2)cc1 (stereo not drawn) [4-K19, 2-chloro-N-[cyclopropyl(4-methoxyphenyl)methyl]acetamide] | 2.83% |
| O=C(CCl)N1N=C(c2cccs2)CC1c1ccccc1O (stereo not drawn) [4-K20, 2-chloro-1-[5-(2-hydroxyphenyl)-3-(thiophen-2-yl)-4,5-dihydro-1H-pyrazol-1-yl]ethan-1-one] | -0.22% |
| Cc1ccc(SCCNC(=O)CCl)cc1 [4-K21, 2-chloro-N-{2-[(4-methylphenyl)sulfanyl]ethyl}acetamide] | 1.65% |
| O=C(CCl)N1N=C(c2ccc3ccccc3c2)CC1c1ccccc1 (stereo not drawn) [4-K22, 2-chloro-1-[3-(naphthalen-2-yl)-5-phenyl-4,5-dihydro-1H-pyrazol-1-yl]ethan-1-one] | -0.201% |
| CSc1ccccc1NC(=O)CN(C)C(=O)CCl [4-L03, 2-chloro-N-methyl-N-({[2-(methylsulfanyl)phenyl]carbamoyl}methyl)acetamide] | 0.451% |
| O=C(CCl)Nc1nc(-c2ccccc2)cs1 [4-L04, 2-chloro-N-(4-phenyl-1,3-thiazol-2-yl)acetamide] | -0.0639% |
| COc1ccc(NC(=O)c2ccccc2NC(=O)CCl)cc1 [4-L05, 2-(2-chloroacetamido)-N-(4-methoxyphenyl)benzamide] | 0.046% |
| Cc1ccc(S(=O)(=O)N2CCCCC2)cc1NC(=O)CCl [4-L06, 2-chloro-N-[2-methyl-5-(piperidine-1-sulfonyl)phenyl]acetamide] | 0.53% |
| Cc1ccc(NC(=O)CCl)cc1S(=O)(=O)N1CCOCC1 [4-L07, 2-chloro-N-[4-methyl-3-(morpholine-4-sulfonyl)phenyl]acetamide] | 0.278% |
| O=C(CCl)Nc1c(F)c(F)c(F)c(F)c1F [4-L08, 2-chloro-N-(2,3,4,5,6-pentafluorophenyl)acetamide] | 1.92% |
| CC(Cl)C(=O)Nc1ccc(SC(F)F)cc1 (stereo not drawn) [4-L09, 2-chloro-N-{4-[(difluoromethyl)sulfanyl]phenyl}propanamide] | 71.9% |
| CCOc1ccc2nc(NC(=O)CCl)sc2c1 [4-L10, 2-chloro-N-(6-ethoxy-1,3-benzothiazol-2-yl)acetamide] | 0.621% |
| O=C(CCl)NC(Cc1ccccc1)c1ccccc1 (stereo not drawn) [4-L11, 2-chloro-N-(1,2-diphenylethyl)acetamide] | 0.317% |
| O=C(CCl)N(Cc1cccs1)C1CCS(=O)(=O)C1 (stereo not drawn) [4-L12, 2-chloro-N-(1,1-dioxo-1lambda6-thiolan-3-yl)-N-[(thiophen-2-yl)methyl]acetamide] | 1.65% |
| CC(Cl)C(=O)Nc1cccc(Cl)c1Cl (stereo not drawn) [4-L13, 2-chloro-N-(2,3-dichlorophenyl)propanamide] | 81.1% |

| Compound | viability at 48 h, 25 µM |
| --- | --- |
| O=C(CCl)N(Cc1ccco1)c1ccccc1 [4-L14, 2-chloro-N-[(furan-2-yl)methyl]-N-phenylacetamide] | 1.2% |
| CCc1ccc(NC(=O)C(C)Cl)cc1 (stereo not drawn) [4-L15, 2-chloro-N-(4-ethylphenyl)propanamide] | 76.6% |
| O=C(CCl)NCC(=O)Nc1ccc(F)c(F)c1 [4-L16, 2-chloro-N-{[(3,4-difluorophenyl)carbamoyl]methyl}acetamide] | 1.48% |
| CC(Cl)C(=O)Nc1ccc(Cl)cc1Cl (stereo not drawn) [4-L17, 2-chloro-N-(2,4-dichlorophenyl)propanamide] | 81.6% |
| O=C(CCl)N(c1ccccc1)C1CCCCC1 [4-L18, 2-chloro-N-cyclohexyl-N-phenylacetamide] | 0.523% |
| Cc1cc(C(C)(C)C)cc(C)c1NC(=O)CCl [4-L19, N-(4-tert-butyl-2,6-dimethylphenyl)-2-chloroacetamide] | 1.04% |
| O=C(CCl)N1CCc2sccc2C1c1cccs1 (stereo not drawn) [4-L20, 2-chloro-1-[4-(thiophen-2-yl)-4H,5H,6H,7H-thieno[3,2-c]pyridin-5-yl]ethan-1-one] | -0.242% |
| O=C(CCl)NCc1ccccc1OC(F)(F)F [4-L21, 2-chloro-N-{[2-(trifluoromethoxy)phenyl]methyl}acetamide] | 0.623% |
| O=C(CCl)Nc1nc(-c2cc(F)ccc2F)cs1 [4-L22, 2-chloro-N-[4-(2,5-difluorophenyl)-1,3-thiazol-2-yl]acetamide] | 0.065% |
| CCCc1cc(NC(=O)CCl)n(-c2ccccc2)n1 [4-M03, 2-chloro-N-(1-phenyl-3-propyl-1H-pyrazol-5-yl)acetamide] | 0.483% |
| CCc1cc(SC#N)cc(C)c1NC(=O)CCl [4-M04, 2-chloro-N-[4-(cyanosulfanyl)-2-ethyl-6-methylphenyl]acetamide] | 17.6% |
| O=C(CCl)Nc1ccc(F)c(F)c1F [4-M05, 2-chloro-N-(2,3,4-trifluorophenyl)acetamide] | 0.759% |
| CCN(CC)S(=O)(=O)c1cccc(NC(=O)CCl)c1 [4-M07, 2-chloro-N-[3-(diethylsulfamoyl)phenyl]acetamide] | 1.11% |
| COc1ccc(NC(C)=O)cc1NC(=O)C(C)Cl (stereo not drawn) [4-M08, 2-chloro-N-(5-acetamido-2-methoxyphenyl)propanamide] | 84.8% |
| COc1cc(NC(=O)CCl)c(C)cc1[N+](=O)[O-] [4-M09, 2-chloro-N-(5-methoxy-2-methyl-4-nitrophenyl)acetamide] | 1.27% |
| CC(Cl)C(=O)Nc1cccc2ncccc12 (stereo not drawn) [4-M10, 2-chloro-N-(quinolin-5-yl)propanamide] | 97.4% |
| CSc1ccccc1NC(=O)C(C)Cl (stereo not drawn) [4-M12, 2-chloro-N-[2-(methylsulfanyl)phenyl]propanamide] | 95.2% |
| Cc1ccc(NC(=O)CCl)cc1[N+](=O)[O-] [4-M13, 2-chloro-N-(4-methyl-3-nitrophenyl)acetamide] | 59.2% |
| Cc1ccc(C)c(-c2cc(NC(=O)CCl)n(-c3ccccc3)n2)c1 [4-M14, 2-chloro-N-[3-(2,5-dimethylphenyl)-1-phenyl-1H-pyrazol-5-yl]acetamide] | 0.149% |

| Compound | viability at 48 h, 25 µM |
| --- | --- |
| Cc1ccc(N(CCC#N)C(=O)CCl)cc1 [4-M15, 2-chloro-N-(2-cyanoethyl)-N-(4-methylphenyl)acetamide] | 1.24% |
| O=C(CCl)Nc1ccccc1F [4-M16, 2-chloro-N-(2-fluorophenyl)acetamide] | 0.723% |
| COc1cc(NC(=O)CCl)c(Cl)cc1C(=O)O [4-M17, 5-chloro-4-(2-chloroacetamido)-2-methoxybenzoic acid] | 1.05% |
| O=C(CCl)N1c2ccccc2SCC1c1ccccc1 (stereo not drawn) [4-M18, 2-chloro-1-(3-phenyl-3,4-dihydro-2H-1,4-benzothiazin-4-yl)ethan-1-one] | -0.0405% |
| COc1ccc(OC)c(C(C)NC(=O)CCl)c1 (stereo not drawn) [4-M19, 2-chloro-N-[1-(2,5-dimethoxyphenyl)ethyl]acetamide] | 1.13% |
| COc1ccc(C2=NN(C(=O)CCl)C(c3ccc(F)cc3)C2)cc1 (stereo not drawn) [4-M20, 2-chloro-1-[5-(4-fluorophenyl)-3-(4-methoxyphenyl)-4,5-dihydro-1H-pyrazol-1-yl]ethan-1-one] | 0.00411% |
| Cc1c(C#N)c(NC(=O)CCl)n(Cc2ccccc2)c1C [4-M21, N-(1-benzyl-3-cyano-4,5-dimethyl-1H-pyrrol-2-yl)-2-chloroacetamide] | -0.247% |
| O=C(CCl)N1N=C(C=Cc2ccco2)CC1c1ccco1 (stereo not drawn) [4-M22, 2-chloro-1-[5-(furan-2-yl)-3-[2-(furan-2-yl)ethenyl]-4,5-dihydro-1H-pyrazol-1-yl]ethan-1-one] | -0.145% |
| N#Cc1ccc(NC(=O)CCl)cc1Cl [4-N03, 2-chloro-N-(3-chloro-4-cyanophenyl)acetamide] | 0.427% |
| O=C(CCl)NCCCc1ccccc1 [4-N04, 2-chloro-N-(3-phenylpropyl)acetamide] | 50.6% |
| CC(Cl)C(=O)N(C)CC(=O)Nc1ccccc1C(F)(F)F (stereo not drawn) [4-N05, 2-chloro-N-methyl-N-({[2-(trifluoromethyl)phenyl]carbamoyl}methyl)propanamide] | 79.8% |
| COc1ccc(-c2csc(NC(=O)CCl)n2)cc1 [4-N06, 2-chloro-N-[4-(4-methoxyphenyl)-1,3-thiazol-2-yl]acetamide] | 0.915% |
| O=C(CCl)N1c2ccccc2Sc2ccc(Cl)cc21 [4-N07, 2-chloro-1-(2-chloro-10H-phenothiazin-10-yl)ethan-1-one] | 122% |
| O=C(CCl)Nc1ccc(C(F)(F)F)cc1[N+](=O)[O-] [4-N08, 2-chloro-N-[2-nitro-4-(trifluoromethyl)phenyl]acetamide] | 87.1% |
| O=C(CCl)Nc1ccccc1OC(F)F [4-N09, 2-chloro-N-[2-(difluoromethoxy)phenyl]acetamide] | 0.7% |
| O=C(CCl)Nc1ccc(-c2ccccc2)cc1 [4-N10, N-{[1,1'-biphenyl]-4-yl}-2-chloroacetamide] | 0.814% |
| O=C(CCl)NCCc1ccc2c(c1)OCCO2 [4-N11, 2-chloro-N-[2-(2,3-dihydro-1,4-benzodioxin-6-yl)ethyl]acetamide] | 18.9% |
| COc1cc(NC(=O)CCl)cc(OC)c1OC [4-N12, 2-chloro-N-(3,4,5-trimethoxyphenyl)acetamide] | 1.27% |
| CC(Cl)C(=O)Nc1cc(Cl)c(Cl)cc1Cl (stereo not drawn) [4-N13, 2-chloro-N-(2,4,5-trichlorophenyl)propanamide] | 71.7% |
